Assay results from patent publication US20250313563A1, “GLYCOGEN SYNTHASE KINASE 3 INHIBITORS AND USES THEREOF” (The Broad Institute, Inc., priority 2022, published 2025).
Where two headings read alike, the source gives them in different places.

Experiments:
[1] = target: GSK3α (GST-full length GSK3α) (Homo sapiens (Human), UniProt P49840); assay: GSK3α TR-FRET kinase assay; type: biochemical
How it was run: (§1)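 Full-length GST-tagged human enzyme (1 nM) is exposed to test compound for 30 min before substrates are added. Phosphorylation of a primed biotinylated glycogen synthase peptide proceeds 100 min at room temperature at low ATP (4 μM α; 2 μM β) or high ATP (1 mM). Product is quantified by TR-FRET.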

[2] = target: GSK3b (GST-full length GSK3b) (Homo sapiens (Human), UniProt P49841); assay: GSK3b TR-FRET kinase assay; type: biochemical
How it was run: as §1

[3] = 1 nM GSK3α, 4 μM ATP, 30 minute preincubation, Table 16, read-out: GSK3-A TR-FRET BIOCHEMICAL (TR-FRET), IC50
[4] = 1 nM GSK3b, 2 μM ATP, 30 minute preincubation, Table 16, read-out: GSK3-B TR-FRET BIOCHEMICAL (TR-FRET), IC50
[5] = 1 nM GSK3α, 4 μM ATP, 30 minute preincubation, Table 16, read-out: GSK3-A TR-FRET BIOCHEMICAL (TR-FRET)
[6] = 1 nM GSK3b, 2 μM ATP, 30 minute preincubation, Table 16, read-out: GSK3-B TR-FRET BIOCHEMICAL (TR-FRET)

Chain of GSK3α (GST-full length GSK3α) (P49840 whole entry): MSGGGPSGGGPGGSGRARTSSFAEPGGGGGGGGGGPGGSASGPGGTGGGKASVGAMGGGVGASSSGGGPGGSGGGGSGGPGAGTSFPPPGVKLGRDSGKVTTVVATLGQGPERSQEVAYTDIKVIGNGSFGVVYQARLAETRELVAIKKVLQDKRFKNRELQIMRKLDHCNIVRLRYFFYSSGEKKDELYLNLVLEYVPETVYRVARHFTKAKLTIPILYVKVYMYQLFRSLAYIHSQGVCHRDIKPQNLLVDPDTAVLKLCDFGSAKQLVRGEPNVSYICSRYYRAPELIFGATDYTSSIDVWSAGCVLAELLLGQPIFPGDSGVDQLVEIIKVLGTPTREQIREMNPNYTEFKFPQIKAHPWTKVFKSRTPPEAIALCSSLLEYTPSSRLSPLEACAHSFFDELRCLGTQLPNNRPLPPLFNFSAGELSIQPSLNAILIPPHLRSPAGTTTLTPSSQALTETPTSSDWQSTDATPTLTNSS
Chain of GSK3b (GST-full length GSK3b) (P49841 whole entry): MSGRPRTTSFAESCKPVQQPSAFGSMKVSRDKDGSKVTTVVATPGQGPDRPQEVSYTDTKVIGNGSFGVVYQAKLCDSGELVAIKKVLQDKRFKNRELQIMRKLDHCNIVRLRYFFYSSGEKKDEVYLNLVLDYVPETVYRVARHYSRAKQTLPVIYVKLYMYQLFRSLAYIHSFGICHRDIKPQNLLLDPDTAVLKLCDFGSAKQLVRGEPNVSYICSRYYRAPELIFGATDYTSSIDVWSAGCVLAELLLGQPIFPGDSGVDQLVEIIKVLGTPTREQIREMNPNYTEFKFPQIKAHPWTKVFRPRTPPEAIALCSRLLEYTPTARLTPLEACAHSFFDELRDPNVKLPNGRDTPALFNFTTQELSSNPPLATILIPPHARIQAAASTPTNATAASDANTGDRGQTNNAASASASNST

SMILES	IC50 [1, 3] [nM]	IC50 [2, 4] [nM]	IC50 [1, 5] [nM]	IC50 [2, 6] [nM]	further results
CCC1(c2cccc(-c3ccncc3)c2)C2=C(CC(C)(C)CC2=O)Nc2n[nH]c(C(F)(F)F)c21 (centres unmarked) [Compound 917292]	100 to 1000	100 to 1000	–	–	IC50 ([1]; read-out: GSK3-A (TR-FRET 1 mM ATP), GMean, IC50, 1 mM ATP, geometric mean): > 5000 nM; IC50 ([2]; read-out: GSK3-B (TR-FRET 1 mM ATP), GMean, IC50, 1 mM ATP, geometric mean): > 5000 nM
CCC1(c2cccc(C(F)(F)F)c2)C2=C(CN(C)C2=O)Nc2n[nH]cc21 (centres unmarked) [Compound 917294]	–	–	100 to 1000	1000 to 5000	–
CCC1(c2cccc(C(F)(F)F)c2)C2=C(Nc3n[nH]cc31)C(C)NC2=O (centres unmarked) [Compound 917295]	–	–	100 to 1000	1000 to 5000	–
CC[C@@]1(c2cccc(C(F)(F)F)c2)C2=C(Nc3n[nH]cc31)C(C)(C)N(C)C2=O [Compound 918251]	–	–	> 5000	> 5000	–
COC(=O)C1CCC2(CC1)C1=C(CC(C)(C)CC1=O)Nc1n[nH]cc12 (centres unmarked) [Compound 918270]	–	–	100 to 1000	100 to 1000	–
CCC1(c2cccc(S(=O)(=O)CCOC)c2)C2=C(CC(C)(C)CC2=O)Nc2n[nH]cc21 (centres unmarked) [Compound 918271]	≤ 100	≤ 100	–	–	–
CCC1(c2cccc(N(C)c3ccc(C)nc3)c2)C2=C(CC(C)(C)CC2=O)Nc2n[nH]cc21 (centres unmarked) [Compound 918272]	100 to 1000	100 to 1000	–	–	–
CCC1(c2cccc(S(=O)(=O)C3CCCCC3)c2)C2=C(CC(C)(C)CC2=O)Nc2n[nH]cc21 (centres unmarked) [Compound 918273]	≤ 100	≤ 100	–	–	–
CCC1(c2cccc(N(C)c3cccc(F)n3)c2)C2=C(CC(C)(C)CC2=O)Nc2n[nH]cc21 (centres unmarked) [Compound 918274]	≤ 100	100 to 1000	–	–	–
CC1(C)CC(=O)C2=C(C1)Nc1n[nH]cc1C21CN(S(=O)(=O)C2CCCCC2)C1 [Compound 918275]	–	–	≤ 100	≤ 100	–
COc1cccc(S(=O)(=O)N2CC3(C2)C2=C(CC(C)(C)CC2=O)Nc2n[nH]cc23)c1 [Compound 918276]	–	–	≤ 100	≤ 100	–
COC(=O)C1CCC2(CC1)C1=C(CC(C)(C)CC1=O)Nc1n[nH]cc12 (centres unmarked) [Compound 918277]	–	–	≤ 100	100 to 1000	–
CC1(C)CC(=O)C2=C(C1)Nc1n[nH]cc1C21CN(S(=O)(=O)c2cccc(F)c2)C1 [Compound 918278]	–	–	≤ 100	≤ 100	–
CCC1(c2cccc(N3CCOc4ncccc43)c2)C2=C(CC(C)(C)CC2=O)Nc2n[nH]cc21 (centres unmarked) [Compound 918279]	≤ 100	≤ 100	–	–	–
CCC1(c2cccc(N3CCOc4ccccc43)c2)C2=C(CC(C)(C)CC2=O)Nc2n[nH]cc21 (centres unmarked) [Compound 918280]	≤ 100	≤ 100	–	–	–
CCC1(c2cccc(-c3ccnc(C)c3F)c2)C2=C(CC(C)(C)CC2=O)Nc2n[nH]cc21 (centres unmarked) [Compound 918281]	≤ 100	100 to 1000	–	–	–
CC1(C)CC2=C(C(=O)[C@H]1F)[C@]1(CC[C@H](C(F)(F)F)CC1)c1c[nH]nc1N2 [Compound 918282]	–	–	≤ 100	≤ 100	–
CC1(C)CC2=C(C(=O)[C@@H]1F)[C@]1(CC[C@H](C(F)(F)F)CC1)c1c[nH]nc1N2 [Compound 918283]	–	–	≤ 100	≤ 100	–
CC1(C)CC(=O)C2=C(Nc3n[nH]cc3[C@]23CC[C@@H](C(F)(F)F)CC3)[C@@H]1F [Compound 918284]	–	–	≤ 100	≤ 100	–
CC1(C)CC(=O)C2=C(Nc3n[nH]cc3[C@]23CC[C@@H](C(F)(F)F)CC3)[C@H]1F [Compound 918285]	–	–	≤ 100	100 to 1000	IC50 ([1]; GSK3-A (TR-FRET 1 mM ATP), GMean, IC50, 1 mM ATP, geometric mean): 1000 to 5000 nM; IC50 ([2]; GSK3-B (TR-FRET 1 mM ATP), GMean, IC50, 1 mM ATP, geometric mean): > 5000 nM
C[C@@H]1C[C@]2(CCN1S(C)(=O)=O)C1=C(CC(C)(C)CC1=O)Nc1n[nH]cc12 [Compound 918315]	–	–	100 to 1000	100 to 1000	–
C[C@@H]1C[C@@]2(CCN1S(C)(=O)=O)C1=C(CC(C)(C)CC1=O)Nc1n[nH]cc12 [Compound 918316]	–	–	≤ 100	100 to 1000	–
CCC1(c2cccc(N3CCCC3C)c2)C2=C(CC(C)(C)CC2=O)Nc2n[nH]cc21 (centres unmarked) [Compound 918321]	≤ 100	≤ 100	–	–	–
CC[C@]1(c2cccc(N3CCC[C@H]3C)c2)C2=C(CC(C)(C)CC2=O)Nc2n[nH]cc21 [Compound 918322]	> 5000	> 5000	–	–	–
CCC1(c2cccc(N3CC(C)C(C)C3)c2)C2=C(CC(C)(C)CC2=O)Nc2n[nH]cc21 (centres unmarked) [Compound 918326]	100 to 1000	100 to 1000	–	–	–
CCC1(c2cccc(N3CC(C)C(C)C3)c2)C2=C(CC(C)(C)CC2=O)Nc2n[nH]cc21 (centres unmarked) [Compound 918327]	1000 to 5000	> 5000	–	–	–
